# Reference: ChEMBL document CHEMBL5143540, “Design, synthesis and biological evaluation of nitrofuran-1,3,4-oxadiazole hybrids as new antitubercular agents” (Bioorg Med Chem, 2022)
# Tested on: Mycobacterium tuberculosis
# Assay: Antitubercular activity against multi-drug resistant Mycobacterium tuberculosis 16833 assessed as reduction in bacterial growth incubated for 7 days by Alamar blue assay
# Type: functional
# Conditions: Mycobacterium tuberculosis, 16833, 168 h; time 7 day
row,Structure (SMILES),MIC [µg/mL]
1,COc1ccc(-c2nnc(CNC(=O)c3ccc([N+](=O)[O-])o3)o2)cc1,3.58
2,CC(C)(C)c1ccc(-c2nnc(CNC(=O)c3ccc([N+](=O)[O-])o3)o2)cc1,1.85
3,CC(C)(C)c1ccc(-c2nnc(-c3ccc([N+](=O)[O-])o3)o2)cc1,> 32
4,O=C(NCc1nnc(-c2ccc(OC(F)(F)F)cc2)o1)c1ccc([N+](=O)[O-])o1,1.96
5,O=C(Nc1nnc(-c2ccc(Br)cc2)o1)c1ccc([N+](=O)[O-])o1,1.44
6,O=C(NCc1nnc(-c2ccc(C(F)(F)F)cc2)o1)c1ccc([N+](=O)[O-])o1,1.93
7,NNC(=O)c1ccncc1 [ISONIAZID],> 32
8,CO[C@H]1/C=C/O[C@@]2(C)Oc3c(C)c(O)c4c(O)c(c(/C=N/N5CCN(C)CC5)c(O)c4c3C2=O)NC(=O)/C(C)=C\C=C\[C@H](C)[C@H](O)[C@@H](C)[C@@H](O)[C@@H](C)[C@H](OC(C)=O)[C@@H]1C [RIFAMPIN],> 32
